According to patent EP0819136B1, “MDP DERIVATIVES AND CONJUGATES HAVING HAEMATOPOIETIC FUNCTION STIMULATING ACTIVITY, AND COMPOSITIONS CONTAINING SAME” (VACSYN S.A., priority 1995, dated 1996):

Legend:
[1] = test system: neutrophiles circulants, leucocytes circulants, monocytes circulants, myélocytes circulants; experiment: Comparison of Muradimétide and GM-CSF on circulating cell counts after i.v. AZT (Example 9, figures 4-7); format: in vivo, souris Swiss femelles; conditions: AZT 40 mg/kg i.v. days 0-3; Muradimétide 25 mg/kg or mGM-CSF 125 µg/kg i.v. 4 h before AZT
Text: La figure 4 représente les effets comparés du Muradimétide et du rmGM-CSF (recombinant mouse GM-CSF) sur la numération des neutrophiles circulants après administration d'AZT.
La figure 5 représente la même comparaison sur la numération des leucocytes circulants.
La figure 6 représente la même comparaison sur la numération de monocytes circulants.
La figure 7 représente la même comparaison sur la numération des myélocytes circulants.
Lorsque les souris ayant reçu un traitement par l'AZT sont traitées par du GM-SCF dans les mêmes conditions que celles utilisées pour le Muradimétide, les comptages de leucocytes et de neutrophiles ne présentent pas d'augmentation contrairement à ce qui est observé lorsque la combinaison AZT-Muradimétide est utilisée. Par contre, on observe une augmentation du nombre des monocytes. Les figures 4, 5, 6, et 7 indiquent l'effet d'un traitement des souris avec du Muradimétide ou avec du mGM-CSF sur les changements respectivement dans les neutrophiles circulants, dans les leucocytes circulants ou dans les monocytes circulants ou dans les myélocytes circulants après une administration intraveineuse d'AZT.
Les souris Swiss femelles ont été traitées par voie intra-veineuse avec 40 mg par kg d'AZT aux jours 0, 1, 2 et 3. […]

[2] = test system: myélocytes circulants; experiment: Circulating myelocytes during two weeks of oral treatment, 4 days per week (Example 4, figure 11); format: in vivo, souris; conditions: p.o. days 0, 1, 2, 3 and 7, 8, 9, 10; MDM 25 mg/kg, AZT 50 mg/kg or both
Protocol: La figure 11 représente l'effet d'un traitement per os de souris pendant deux semaines consécutives (4 jours par semaine) avec l'AZT, le Muradimétide ou le mélange des deux sur le nombre des myélocytes circulants.
La figure 11 montre l'effet d'un traitement par le MDM à 25 mg/kg (X), de l'AZT à 50 mg/kg (O) et du mélange des deux (□) sur le comptage des myélocytes de souris traitées pendant 2 semaines aux jours 0, 1, 2, 3 de la première semaine et 7, 8, 9, 10 de la deuxième semaine. […] Si l'effet est surtout marqué au niveau de la première semaine, cela montre que le traitement nécessite un certain espace de temps entre les différents cycles de traitement et que des traitements répétés pourraient, le cas échéant, être utiles.

## COC(=O)CC[C@@H](NC(=O)[C@H](C)NC(=O)[C@@H](C)O[C@H]1[C@H](O)[C@@H](CO)OC(O)[C@@H]1NC(C)=O)C(=O)OC (stereo partly drawn) [Muradimétide, Nac-Mur-L-Ala-D-Glu-[OCH3]-OCH3]
[1]
  comptages de leucocytes et de neutrophiles: effet nettement marqué
  élévation / mobilisation des CSH dans le sang (myélocytes circulants): très forte élévation
[2]
  effet sur la mobilisation des CHS (comptage des myélocytes): effet significatif
